Tested on: not given
Assay: not given
Conditions: in high dosages; literature; cited from earlier work

For NNCCc1ccccc1 [Phenelzine, 2-phenylethyl-hydrazine, reference compound], which hypoglycaemic activity is on record?
The hypoglycaemic activity was “can be hypoglycaemically active in high dosages”.

For CC(NN)c1ccccc1 (centres unmarked) [mebanazine, 1-phenylethyl-hydrazine], which hypoglycaemic activity is on record?
Its hypoglycaemic activity is “can be hypoglycaemically active in high dosages”.

Tested on: blood glucose
Assay: Blood sugar tests: hypoglycaemic activity in fasting guinea pigs, i.p.
Assay type: in vivo, guinea pig
Conditions: Cavia porcellus, ip, read-out: Threshold i.p. Dosage for Hypoglycaemic Activity in Testing Guinea Pigs
Procedure: In order to illustrate the pharmacological properties of the compounds according to the invention, the blood sugarlowering effect and the monoaminoxidase (MAO) inhibition were determined and compared with some corresponding hydrazines. […] Metabolically healthy, cross-bred, fasting guinea pigs were injected with the substances as aqueous solutions of their sodium salts, i.p. A control group receives equivalent amounts of an isotonic NaCl solution. Directly before, as well as in hourly intervals up to the fourth hour after the […], 10 μl blood are taken from an ear border vein and the blood glucose is determined by means of the trouble-free and specific hexokinase technique.

With NNCCc1ccccc1 [Phenelzine, 2-phenylethyl-hydrazine, reference compound] as the molecule, how does the minimal effective dose read?
The minimal effective dose was at least 50 mg/kg.

Which minimal effective dose does the source give for CC(=NNCCCc1ccccc1)C(=O)[O-].[Na+] [Sodium 2-(3-phenylpropylhydrazono)-propionate] here?
The minimal effective dose was 35 mg/kg.

Which minimal effective dose does the source give for CC(=NNCC=Cc1ccccc1)C(=O)[O-].[Na+] [Sodium-2-(cinnamylhydrazono)-propionate, sodium 2-(cinnamylhydrazono)-propionate] here?
Its minimal effective dose is 15 mg/kg.

With COc1ccccc1CCNN=C(C)C(=O)[O-].[Na+] [sodium 2-(2-methoxyphenethylhydrazono)-propionate] as the molecule, how does the minimal effective dose read?
The minimal effective dose was 25 mg/kg.

Which minimal effective dose does the source give for CC(=NNCCc1cccc(Br)c1)C(=O)[O-].[Na+] [sodium 2-(3-bromophenethylhydrazono)-propionate] here?
Its minimal effective dose is 25 to 50 mg/kg.

Same assay, conditions: Cavia porcellus, ip; fasting guinea pigs, i.p., aqueous solutions of sodium salts; dosage which significantly lowers blood glucose versus control, up to fourth hour; read-out: Threshold i.p. Dosage for Hypoglycaemic Activity in Testing Guinea Pigs

With CC(=NNCCc1ccccc1C)C(=O)O [2-(2-methylphenethylhydrazono)-propionic acid] as the molecule, how does the minimal effective dose read?
Its minimal effective dose is 50 mg/kg.

With CC(=NNCCc1ccc(Cl)cc1)C(=O)O [2-(4-chlorophenethylhydrazono)-propionic acid] as the molecule, how does the minimal effective dose read?
The minimal effective dose was 25 mg/kg.

Which minimal effective dose does the source give for CC(=NNCCc1ccc(F)cc1)C(=O)O [2-(4-fluorophenethylhydrazono)-propionic acid] here?
The minimal effective dose was 25 mg/kg.

With COc1ccc(CCNN=C(C)C(=O)O)cc1 [2-(4-methoxyphenethylhydrazono)-propionic acid] as the molecule, how does the minimal effective dose read?
The minimal effective dose was 50 mg/kg.

With CC(=NNCCc1ccccc1)C(N)=O [2-(phenethylhydrazono)-propionamide] as the molecule, how does the minimal effective dose read?
The minimal effective dose was 50 mg/kg.

For CC(=NNCCc1ccccc1)C(=O)O [2-(phenethylhydrazono)-propionic acid, 2-(Phenethylhydrazono)-propionic acid], which minimal effective dose is on record?
The minimal effective dose was 15 mg/kg.

For CC(=NNCCc1ccc(C)cc1)C(=O)O [2-[2-(p-tolyl)-ethylhydrazono]-propionic acid], which minimal effective dose is on record?
Its minimal effective dose is 50 mg/kg.

For CCOC(=O)C(C)=NNCCc1ccccc1 [Ethyl 2-(phenethylhydrazono)-propionate], which minimal effective dose is on record?
Its minimal effective dose is 25 mg/kg.

Which minimal effective dose does the source give for COC(=O)C(C)=NNCCc1ccccc1 [Methyl 2-(phenethylhydrazono)-propionate] here?
Its minimal effective dose is 50 mg/kg.

Same assay, conditions: fasting guinea pigs, i.p., aqueous solutions of sodium salts; dosage which significantly lowers blood glucose versus control, up to fourth hour

For “3-phenyl-propen-2-yl--hydrazin-hydrochloride [reference compound]”, which “Threshold i.p. Dosage for Hypoglycaemic Activity in Testing Guinea Pigs” value is on record?
Its value is over 50 mg/kg.

Which “Threshold i.p. Dosage for Hypoglycaemic Activity in Testing Guinea Pigs” value does the source give for “sodium 2-(β-methylcinnamylhydrazono)-propionate” here?
Its value is 10 mg/kg.

Tested on: MAO
Assay: Measuring of the MAO activity in vitro (kynuramine substrate, unrefined guinea pig liver or brain preparation)
Assay type: biochemical
Conditions: 360 mμ, read-out: Concentration for 50% MAO Inhibitions
Procedure: In order to illustrate the pharmacological properties of the compounds according to the invention, the blood sugarlowering effect and the monoaminoxidase (MAO) inhibition were determined and compared with some corresponding hydrazines.
An unrefined MAO preparation is obtained by comminution of guinea pig liver or brain with the Ultraturrax and subsequent centrifuging at about 10,000 g. The liquid contains the MAO portion dissolved in the cytoplasm and is used for the activity measurements. As substrate there is used kynuramine whose oxidative decomposition by the MAO can be directly observed at 360 m μ in the photometer. The extinction decrease per time unit is a measure of the enzyme activity.

For CC(=NNCCc1ccccc1)C(=O)O [2-(phenethylhydrazono)-propionic acid, 2-(Phenethylhydrazono)-propionic acid], which IC50 is on record?
Its IC50 is 600 µM.

For NNCCc1ccccc1 [Phenelzine, 2-phenylethyl-hydrazine, reference compound], which IC50 is on record?
The IC50 was 0.4 µM.

From patent US4136196A, “Hypoglycaemically active 2-(phenylalkyl- or -alkenyl hydrazono)-propionic acid derivatives” (Boehringer Mannheim GmbH, priority 1976, dated 1979)
